Measured values reported in patent US20110105408A1, “THERAPEUTIC PEPTIDES” (INTER-K PTY LIMITED, priority 2008, published 2011).

System: phospho-ERK in HT29 cells
Experiment: Phospho-ERK ELISA (FACE ERK1/2 kit) in HT29 cells
Format: cell-based, human
Method: HT29 cells were harvested using 0.5% trypsin EDTA (Invitrogen) and 5000 cells were resuspended into 200 μL, and added to each well of a clear NUNC tissue culture treated 96 well plate (NUNC). Cells were seeded in DMEM media (Invitrogen) supplemented with 10% v/v foetal calf serum (FCS, Invitrogen), 1% L-Glutamine (Invitrogen) and 2% 1M HEPES buffer solution (Invitrogen). Cells were then incubated overnight at 37° C. The following day, the growth medium was replaced with 100 μL of serum-free DMEM supplemented with 1% L-glutamine and 2% 1M HEPES buffer solution, and incubated for a further 24 hours at 37° C. Dendrimers were added to test wells in serum free medium to provide final concentrations of the dendrimers ranging from 0.1-20 μLA. The total volume of each well was 200 uL, and cells were incubated at 37° C. for times ranging from 5 minutes to 4 hours. In those studies in which cells were subjected to stimulation by serum, 22 μL FCS (10% v/v final concentration) was added to wells for the final ten minutes of the culture period at 37° C. Serum-free media (SFM) only (22 μL) was added to non-serum stimulated cells.
Phospho-ERK levels were determined using the FACE ERK1/2 ELISA kit according to the manufacturer's instructions (Active Motif, kit obtained from Australian Biosearch, WA, Australia). Briefly, media was replaced and cells fixed with 4% formaldehyde in PBS, and after a 1 hour with antibody blocking buffer (supplied), the primary phospho-ERK or total-ERK antibody was added and incubated overnight at 4° C. Antibody dilution buffer only was added to control test wells containing no primary antibody. The next day, HRP-conjugated secondary antibody was added for one hour before plates were developed and the absorbance measured at 450 nm using a Labsystems Multiskan EX microplate reader (Labsystems, Thermo Labsystems, UK).
The effectiveness of the peptide dendrimer IK248 described in Example 2 in inhibiting growth factor mediated activation of ERK in HT29 cancer cells (i.e., (FCS stimulated) compared to various agents comprising the polypeptide RSKAKNPLYR (SEQ ID No. 6) coupled to different peptide facilitator moieties for facilitating passage of the polypeptide across the plasma cell membrane into the cytosol of the cells was evaluated. Phospho-ERK levels in the cells following treatment with 5 μM IK248 (Dend 8) for 1 hour or polypeptide-facilitator moiety agents (each at 5 μM for the same duration) were measured essentially as described in Example 1.3. The facilitator moieties utilised were the signal peptide fragment AAVALLPAVLLALLA (SEQ ID No. 16), the TAT-G peptide GRKKRRQRRRPPQG (SEQ ID No. 17), a modified pentratin sequence Tr-Pen RRQKWKKG (SEQ ID No. 18), and the penetratin peptide RQIKIWFQNRRMKWKKCS—SC (SEQ ID No. 19) wherein S—S indicates a disulphide bridge between the adjacent cysteine residues.
The peptide RSKAKNPLYR (SEQ ID. No. 6) or peptide dendrimers of the type illustrated in FIG. 3 comprising lysine branching units presenting either 8 (IK248) or 10 (IK248B) monomer units of the peptide RSKAKNPLYR (SEQ ID No. 6) were utilised in this study. Phospho-ERK levels were evaluated by ELISA utilising an Active Motif FACE ERK1/2 ELISA kit (Australian Biosearch, WA, Australia) as described in Example 1.3.

## CC(C)C[C@H](NC(=O)[C@@H]1CCCN1C(=O)[C@H](CC(N)=O)NC(=O)[C@H](CCCCN)NC(=O)[C@H](C)NC(=O)[C@H](CCCCN)NC(=O)[C@H](CO)NC(=O)[C@@H](N)CCCNC(=N)N)C(=O)N[C@@H](Cc1ccc(O)cc1)C(=O)N[C@@H](CCCNC(=N)N)C(=O)NCCCC[C@H](NC(=O)[C@H](CCCCNC(=O)[C@H](CCCCNC(=O)[C@H](CCCNC(=N)N)NC(=O)[C@H](Cc1ccc(O)cc1)NC(=O)[C@H](CC(C)C)NC(=O)[C@@H]1CCCN1C(=O)[C@H](CC(N)=O)NC(=O)[C@H](CCCCN)NC(=O)[C@H](C)NC(=O)[C@H](CCCCN)NC(=O)[C@H](CO)NC(=O)[C@@H](N)CCCNC(=N)N)NC(=O)[C@H](CCCNC(=N)N)NC(=O)[C@H](Cc1ccc(O)cc1)NC(=O)[C@H](CC(C)C)NC(=O)[C@@H]1CCCN1C(=O)[C@H](CC(N)=O)NC(=O)[C@H](CCCCN)NC(=O)[C@H](C)NC(=O)[C@H](CCCCN)NC(=O)[C@H](CO)NC(=O)[C@@H](N)CCCNC(=N)N)NC(=O)[C@H](CCCCNC(=O)[C@H](CCCNC(=N)N)NC(=O)[C@H](Cc1ccc(O)cc1)NC(=O)[C@H](CC(C)C)NC(=O)[C@@H]1CCCN1C(=O)[C@H](CC(N)=O)NC(=O)[C@H](CCCCN)NC(=O)[C@H](C)NC(=O)[C@H](CCCCN)NC(=O)[C@H](CO)NC(=O)[C@@H](N)CCCNC(=N)N)NC(=O)[C@H](CCCNC(=N)N)NC(=O)[C@H](Cc1ccc(O)cc1)NC(=O)[C@H](CC(C)C)NC(=O)[C@@H]1CCCN1C(=O)[C@H](CC(N)=O)NC(=O)[C@H](CCCCN)NC(=O)[C@H](C)NC(=O)[C@H](CCCCN)NC(=O)[C@H](CO)NC(=O)[C@@H](N)CCCNC(=N)N)C(=O)NCCCC[C@H](NC(=O)[C@H](CCCCNC(=O)[C@H](CCCNC(=N)N)NC(=O)[C@H](Cc1ccc(O)cc1)NC(=O)[C@H](CC(C)C)NC(=O)[C@@H]1CCCN1C(=O)[C@H](CC(N)=O)NC(=O)[C@H](CCCCN)NC(=O)[C@H](C)NC(=O)[C@H](CCCCN)NC(=O)[C@H](CO)NC(=O)[C@@H](N)CCCNC(=N)N)NC(=O)[C@H](CCCCNC(=O)[C@H](CCCCNC(=O)[C@H](CCCNC(=N)N)NC(=O)[C@H](Cc1ccc(O)cc1)NC(=O)[C@H](CC(C)C)NC(=O)[C@@H]1CCCN1C(=O)[C@H](CC(N)=O)NC(=O)[C@H](CCCCN)NC(=O)[C@H](C)NC(=O)[C@H](CCCCN)NC(=O)[C@H](CO)NC(=O)[C@@H](N)CCCNC(=N)N)NC(=O)[C@H](CCCNC(=N)N)NC(=O)[C@H](Cc1ccc(O)cc1)NC(=O)[C@H](CC(C)C)NC(=O)[C@@H]1CCCN1C(=O)[C@H](CC(N)=O)NC(=O)[C@H](CCCCN)NC(=O)[C@H](C)NC(=O)[C@H](CCCCN)NC(=O)[C@H](CO)NC(=O)[C@@H](N)CCCNC(=N)N)NC(=O)[C@H](CCCCNC(=O)[C@H](CCCNC(=N)N)NC(=O)[C@H](Cc1ccc(O)cc1)NC(=O)[C@H](CC(C)C)NC(=O)[C@@H]1CCCN1C(=O)[C@H](CC(N)=O)NC(=O)[C@H](CCCCN)NC(=O)[C@H](C)NC(=O)[C@H](CCCCN)NC(=O)[C@H](CO)NC(=O)[C@@H](N)CCCNC(=N)N)NC(=O)[C@H](CCCNC(=N)N)NC(=O)[C@H](Cc1ccc(O)cc1)NC(=O)[C@H](CC(C)C)NC(=O)[C@@H]1CCCN1C(=O)[C@H](CC(N)=O)NC(=O)[C@H](CCCCN)NC(=O)[C@H](C)NC(=O)[C@H](CCCCN)NC(=O)[C@H](CO)NC(=O)[C@@H](N)CCCNC(=N)N)C(=O)NCCC(N)=O [IK248B]
HI FCS stimulated HT29 cells
  phospho-ERK levels relative to control cells, dose response: decreased relative to control cells with progressively increasing dosages
HI FCS stimulated HT29 cells, 10 μM (data not shown)
  ERK activity (as indicated by phospho-ERK levels): entirely inhibited
HI FCS stimulated HT29 cells, dose of 5 μM
  phospho-ERK levels: almost totally abrogated
Data not shown
  phospho-ERK levels in HT29 cells compared to normal skin fibroblast cells (selectivity for cancer cells): significantly reduced compared to normal skin fibroblast cells
Not FCS stimulated, 0.1, 0.5, 1 and 5 μM, 4 hr incubation
  basal phospho-ERK level relative to control cells: did not stimulate basal phospho-ERK levels
